# Experimental data published in publication PMC6326728, “eIF2B activator prevents neurological defects caused by a chronic integrated stress response” (eLife, 2019).
# Assays:
# Experiment in all cases: biochemical
# Parameters in all cases: CEREP panel radioligand binding displacement, % inhibition of control specific binding by 10 uM 2BAct
# [1] = target: T1, 5-HT1A (h) (Homo sapiens, UniProt P08908); settings: Type=Agonist radioligand; read-out: % inhibition of Control specific binding
# T1 construct: gene HTR1A
# Method: (§1) Supplementary file elife-42940-supp1.xlsx: Supplementary file 1. (A) Binding of 2BAct at 10 μM to the CEREP panel of receptors/enzymes/ion channels. Compound binding was calculated as a % inhibition of the binding of a radioactively labeled ligand specific for each target. Results showing inhibition or stimulation higher than 50% are considered to represent significant effects of the test compound. (B) Pharmacokinetic data from 2BAct dosing in mice. (C) GO Biological Processes identified by enrichment analysis of RNA-seq data. (D) List of genes used for enrichment analysis of scRNA-seq data.
# [2] = target: T2, 5-HT1B (Rattus norvegicus, UniProt P28564); settings: Type=Antagonist radioligand; read-out: % inhibition of Control specific binding
# T2 construct: gene Htr1b
# Method: as §1
# [3] = target: T3, 5-HT2B (h) (Homo sapiens, UniProt P41595); settings: Type=Agonist radioligand; read-out: % inhibition of Control specific binding
# T3 construct: gene HTR2B
# Method: as §1
# [4] = target: T4, 5-HT2C (h) (Homo sapiens, UniProt P28335); settings: Type=Antagonist radioligand; read-out: % inhibition of Control specific binding
# T4 construct: gene HTR2C
# Method: as §1
# [5] = target: T5, 5-HT7 (h) (Homo sapiens, UniProt P34969); settings: Type=Agonist radioligand; read-out: % inhibition of Control specific binding
# T5 construct: gene HTR7
# Method: as §1
# [6] = target: AR (h) (Homo sapiens, UniProt P10275); settings: Type=Agonist radioligand; read-out: % inhibition of Control specific binding
# Method: as §1
# [7] = target: T6, BZD (peripheral) (Rattus norvegicus, UniProt P16257); settings: Type=Antagonist radioligand; read-out: % inhibition of Control specific binding
# T6 construct: gene Tspo; peripheral
# Method: as §1
# [8] = target: T7, CB1 (h) (Homo sapiens, UniProt P21554); settings: Type=Agonist radioligand; read-out: % inhibition of Control specific binding
# T7 construct: gene CNR1
# Method: as §1
# [9] = target: T8, CCK1(CCKA) (h) (Homo sapiens, UniProt P32238); settings: Type=Agonist radioligand; read-out: % inhibition of Control specific binding
# T8 construct: gene CCKAR
# Method: as §1
# [10] = target: T9, D1 (h) (Homo sapiens, UniProt P21728); settings: Type=Antagonist radioligand; read-out: % inhibition of Control specific binding
# T9 construct: gene DRD1
# Method: as §1
# [11] = target: T10, EP2 (h) (Homo sapiens, UniProt P43116); settings: Type=Agonist radioligand; read-out: % inhibition of Control specific binding
# T10 construct: gene PTGER2
# Method: as §1
# [12] = target: T11, ET-A (h) (Homo sapiens, UniProt P25101); settings: Type=Agonist radioligand; read-out: % inhibition of Control specific binding
# T11 construct: gene EDNRA
# Method: as §1
# [13] = target: T12, ET-B (h) (Homo sapiens, UniProt P24530); settings: Type=Agonist radioligand; read-out: % inhibition of Control specific binding
# T12 construct: gene EDNRB
# Method: as §1
# [14] = target: T13, GR (h) (Homo sapiens, UniProt P04150); settings: Type=Agonist radioligand; read-out: % inhibition of Control specific binding
# T13 construct: gene NR3C1
# Method: as §1
# [15] = target: T14, NK1 (h) (Homo sapiens, UniProt P25103); settings: Type=Agonist radioligand; read-out: % inhibition of Control specific binding
# T14 construct: gene TACR1
# Method: as §1
# [16] = target: T15, UT (h) (Homo sapiens, UniProt Q9UKP6); settings: Type=Agonist radioligand; read-out: % inhibition of Control specific binding
# T15 construct: gene UTS2R
# Method: as §1
# [17] = target: T16, V1a (h) (Homo sapiens, UniProt P37288); settings: Type=Agonist radioligand; read-out: % inhibition of Control specific binding
# T16 construct: gene AVPR1A
# Method: as §1
# [18] = target: T17, VPAC1 (VIP1) (h) (Homo sapiens, UniProt P32241); settings: Type=Agonist radioligand; read-out: % inhibition of Control specific binding
# T17 construct: gene VIPR1
# Method: as §1
# [19] = target: T18, a2A (h) (Homo sapiens, UniProt P08913); settings: Type=Antagonist radioligand; read-out: % inhibition of Control specific binding
# T18 construct: gene ADRA2A
# Method: as §1
# [20] = target: T19, a2B (h) (Homo sapiens, UniProt P18089); settings: Type=Antagonist radioligand; read-out: % inhibition of Control specific binding
# T19 construct: gene ADRA2B
# Method: as §1
# [21] = target: T20, d (DOP) (h) (Homo sapiens, UniProt P41143); settings: Type=Agonist radioligand; read-out: % inhibition of Control specific binding
# T20 construct: gene OPRD1
# Method: as §1
# [22] = target: T21, dopamine transporter (h) (Homo sapiens, UniProt Q01959); settings: Type=Antagonist radioligand; read-out: % inhibition of Control specific binding
# T21 construct: gene SLC6A3
# Method: as §1
# T11 sequence (P25101 whole entry): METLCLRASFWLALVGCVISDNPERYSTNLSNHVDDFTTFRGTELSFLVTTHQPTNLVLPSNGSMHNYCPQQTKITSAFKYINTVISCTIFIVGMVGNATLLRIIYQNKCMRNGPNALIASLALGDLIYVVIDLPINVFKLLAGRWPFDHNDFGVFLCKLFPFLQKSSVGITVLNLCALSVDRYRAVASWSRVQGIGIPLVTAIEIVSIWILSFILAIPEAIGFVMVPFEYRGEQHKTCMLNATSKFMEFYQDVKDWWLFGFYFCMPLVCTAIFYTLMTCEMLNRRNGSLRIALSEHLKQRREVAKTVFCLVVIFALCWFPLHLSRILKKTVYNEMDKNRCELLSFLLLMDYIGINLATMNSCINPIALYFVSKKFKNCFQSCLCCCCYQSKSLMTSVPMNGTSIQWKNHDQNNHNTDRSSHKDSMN
# T13 sequence (P04150 whole entry): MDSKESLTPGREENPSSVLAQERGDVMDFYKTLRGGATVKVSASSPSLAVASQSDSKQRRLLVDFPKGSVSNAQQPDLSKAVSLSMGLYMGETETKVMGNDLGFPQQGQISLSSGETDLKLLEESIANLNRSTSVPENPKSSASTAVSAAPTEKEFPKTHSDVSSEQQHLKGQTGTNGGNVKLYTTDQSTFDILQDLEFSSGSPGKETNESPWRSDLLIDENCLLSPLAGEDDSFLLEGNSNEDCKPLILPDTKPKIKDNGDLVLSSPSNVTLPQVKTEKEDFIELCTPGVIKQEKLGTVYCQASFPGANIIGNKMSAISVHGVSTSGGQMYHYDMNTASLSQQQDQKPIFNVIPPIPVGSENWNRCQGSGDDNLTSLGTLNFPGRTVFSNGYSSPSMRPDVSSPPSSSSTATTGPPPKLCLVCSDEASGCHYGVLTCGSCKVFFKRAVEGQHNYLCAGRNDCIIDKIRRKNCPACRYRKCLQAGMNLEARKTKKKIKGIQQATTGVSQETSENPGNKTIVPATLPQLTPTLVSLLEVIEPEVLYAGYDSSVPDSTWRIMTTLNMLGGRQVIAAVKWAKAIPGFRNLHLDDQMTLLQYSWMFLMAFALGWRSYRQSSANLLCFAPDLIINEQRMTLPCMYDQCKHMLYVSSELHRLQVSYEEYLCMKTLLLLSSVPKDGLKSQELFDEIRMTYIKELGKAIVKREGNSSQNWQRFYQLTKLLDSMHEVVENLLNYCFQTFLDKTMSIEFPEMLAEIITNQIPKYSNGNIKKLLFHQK
# T19 sequence (P18089 whole entry): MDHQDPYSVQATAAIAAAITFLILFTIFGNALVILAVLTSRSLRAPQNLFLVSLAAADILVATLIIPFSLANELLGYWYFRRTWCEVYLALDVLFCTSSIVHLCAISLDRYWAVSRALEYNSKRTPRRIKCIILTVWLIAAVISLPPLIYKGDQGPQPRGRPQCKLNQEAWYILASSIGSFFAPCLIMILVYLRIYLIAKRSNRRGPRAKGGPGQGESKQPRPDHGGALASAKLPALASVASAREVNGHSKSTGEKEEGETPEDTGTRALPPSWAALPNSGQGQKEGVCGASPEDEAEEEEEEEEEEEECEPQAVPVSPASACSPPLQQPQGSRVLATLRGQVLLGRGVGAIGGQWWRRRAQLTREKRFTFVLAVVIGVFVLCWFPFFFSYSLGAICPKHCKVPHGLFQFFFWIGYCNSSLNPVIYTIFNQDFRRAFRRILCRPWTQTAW
# T2 sequence (P28564 whole entry): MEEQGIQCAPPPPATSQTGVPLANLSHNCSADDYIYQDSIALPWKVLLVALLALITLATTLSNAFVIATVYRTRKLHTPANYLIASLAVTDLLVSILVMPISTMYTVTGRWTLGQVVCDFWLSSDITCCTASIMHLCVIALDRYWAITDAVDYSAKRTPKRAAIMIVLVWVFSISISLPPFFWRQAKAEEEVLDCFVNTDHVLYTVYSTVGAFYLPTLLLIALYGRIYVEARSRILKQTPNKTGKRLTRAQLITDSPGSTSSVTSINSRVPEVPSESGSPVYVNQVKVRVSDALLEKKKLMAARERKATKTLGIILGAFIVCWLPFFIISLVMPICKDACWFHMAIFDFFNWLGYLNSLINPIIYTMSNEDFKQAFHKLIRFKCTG
# T5 sequence (P34969 whole entry): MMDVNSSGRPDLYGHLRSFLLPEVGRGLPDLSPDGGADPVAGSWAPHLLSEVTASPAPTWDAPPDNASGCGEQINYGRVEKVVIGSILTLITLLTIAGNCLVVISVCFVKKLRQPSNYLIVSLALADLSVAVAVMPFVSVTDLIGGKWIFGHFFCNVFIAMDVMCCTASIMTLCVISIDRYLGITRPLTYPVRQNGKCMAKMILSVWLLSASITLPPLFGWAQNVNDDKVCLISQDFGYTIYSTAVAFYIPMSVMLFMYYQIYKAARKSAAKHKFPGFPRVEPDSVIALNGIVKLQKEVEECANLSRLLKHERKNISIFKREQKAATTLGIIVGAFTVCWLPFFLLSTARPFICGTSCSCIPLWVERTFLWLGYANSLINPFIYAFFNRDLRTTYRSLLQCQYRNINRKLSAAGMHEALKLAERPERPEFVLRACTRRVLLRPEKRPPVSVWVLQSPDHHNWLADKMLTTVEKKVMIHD
# T8 sequence (P32238 whole entry): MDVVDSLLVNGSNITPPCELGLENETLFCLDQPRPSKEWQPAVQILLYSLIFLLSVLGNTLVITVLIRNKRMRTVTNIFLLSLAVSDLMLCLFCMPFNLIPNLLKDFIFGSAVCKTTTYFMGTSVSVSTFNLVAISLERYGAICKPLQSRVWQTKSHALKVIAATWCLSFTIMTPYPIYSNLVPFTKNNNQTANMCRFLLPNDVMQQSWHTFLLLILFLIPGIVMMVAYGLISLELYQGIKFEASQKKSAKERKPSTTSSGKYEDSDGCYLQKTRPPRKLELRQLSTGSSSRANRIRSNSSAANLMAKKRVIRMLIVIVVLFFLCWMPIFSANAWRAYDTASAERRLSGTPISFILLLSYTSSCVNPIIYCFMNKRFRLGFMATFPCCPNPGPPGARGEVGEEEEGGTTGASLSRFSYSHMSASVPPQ
# T12 sequence (P24530 whole entry): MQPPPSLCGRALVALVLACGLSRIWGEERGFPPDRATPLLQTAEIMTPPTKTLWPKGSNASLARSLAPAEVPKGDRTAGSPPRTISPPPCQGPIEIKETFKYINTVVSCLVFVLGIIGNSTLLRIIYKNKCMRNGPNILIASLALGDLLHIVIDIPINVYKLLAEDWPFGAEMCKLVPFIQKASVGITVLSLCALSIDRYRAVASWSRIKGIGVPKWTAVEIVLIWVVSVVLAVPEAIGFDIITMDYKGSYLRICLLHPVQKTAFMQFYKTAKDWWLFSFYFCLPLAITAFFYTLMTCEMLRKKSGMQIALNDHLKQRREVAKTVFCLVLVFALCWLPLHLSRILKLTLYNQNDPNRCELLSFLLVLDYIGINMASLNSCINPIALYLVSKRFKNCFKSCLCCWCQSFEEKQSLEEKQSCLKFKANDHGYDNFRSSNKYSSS
# T15 sequence (Q9UKP6 whole entry): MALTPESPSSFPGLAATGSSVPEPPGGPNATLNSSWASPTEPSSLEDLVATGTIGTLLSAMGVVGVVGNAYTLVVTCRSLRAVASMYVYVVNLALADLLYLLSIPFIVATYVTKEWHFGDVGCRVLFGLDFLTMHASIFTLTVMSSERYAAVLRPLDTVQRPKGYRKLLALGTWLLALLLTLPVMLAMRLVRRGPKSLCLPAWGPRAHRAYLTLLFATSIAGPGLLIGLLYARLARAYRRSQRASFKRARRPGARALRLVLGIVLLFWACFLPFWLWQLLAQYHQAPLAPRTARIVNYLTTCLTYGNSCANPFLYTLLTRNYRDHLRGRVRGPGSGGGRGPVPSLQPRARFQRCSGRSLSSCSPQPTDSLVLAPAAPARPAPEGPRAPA
# T14 sequence (P25103 whole entry): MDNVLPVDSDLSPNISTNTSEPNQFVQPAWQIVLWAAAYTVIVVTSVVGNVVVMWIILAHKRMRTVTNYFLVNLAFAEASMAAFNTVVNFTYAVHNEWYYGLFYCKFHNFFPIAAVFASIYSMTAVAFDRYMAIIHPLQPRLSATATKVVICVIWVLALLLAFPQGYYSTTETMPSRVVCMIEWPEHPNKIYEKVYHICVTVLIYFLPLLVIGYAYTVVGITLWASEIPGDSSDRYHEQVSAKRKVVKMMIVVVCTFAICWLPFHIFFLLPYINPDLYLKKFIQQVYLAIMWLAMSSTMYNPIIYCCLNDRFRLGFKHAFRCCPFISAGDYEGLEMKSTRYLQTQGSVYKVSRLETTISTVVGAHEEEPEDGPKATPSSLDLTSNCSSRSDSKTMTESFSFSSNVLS
# T3 sequence (P41595 whole entry): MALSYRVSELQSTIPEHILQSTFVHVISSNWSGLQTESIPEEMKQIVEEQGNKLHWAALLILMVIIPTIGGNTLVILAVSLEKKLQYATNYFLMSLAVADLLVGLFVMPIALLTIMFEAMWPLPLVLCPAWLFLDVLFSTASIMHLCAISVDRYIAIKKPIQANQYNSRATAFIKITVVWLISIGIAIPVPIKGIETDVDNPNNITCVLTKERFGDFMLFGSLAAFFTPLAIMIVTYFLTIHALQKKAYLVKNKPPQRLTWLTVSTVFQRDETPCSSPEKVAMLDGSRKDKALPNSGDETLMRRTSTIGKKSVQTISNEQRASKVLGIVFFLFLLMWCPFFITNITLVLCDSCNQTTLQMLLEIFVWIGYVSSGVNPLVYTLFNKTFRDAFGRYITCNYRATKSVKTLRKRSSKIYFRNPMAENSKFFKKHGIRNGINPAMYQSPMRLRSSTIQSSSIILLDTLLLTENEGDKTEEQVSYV
# T6 sequence (P16257 whole entry): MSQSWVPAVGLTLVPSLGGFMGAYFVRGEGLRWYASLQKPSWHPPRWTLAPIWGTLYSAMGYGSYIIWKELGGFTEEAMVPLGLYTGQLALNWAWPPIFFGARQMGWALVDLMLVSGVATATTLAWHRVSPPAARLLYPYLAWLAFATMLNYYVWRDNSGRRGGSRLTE
compound,measurement,setting,value
O=C(COc1ccc(Cl)c(F)c1)NC12CC(NC(=O)c3cnc(C(F)F)cn3)(C1)C2 [2BAct],inhibition at 10 µM,[1],15.8%
same,inhibition at 10 µM,[2],-8.8%
same,inhibition at 10 µM,[3],8.6%
same,inhibition at 10 µM,[4],38.7%
same,inhibition at 10 µM,[5],3.9%
same,inhibition at 10 µM,[6],-0.2%
same,inhibition at 10 µM,[7],36.2%
same,inhibition at 10 µM,[8],8.3%
same,inhibition at 10 µM,[9],5.2%
same,inhibition at 10 µM,[10],5.9%
same,inhibition at 10 µM,[11],-4%
same,inhibition at 10 µM,[12],-5.3%
same,inhibition at 10 µM,[13],6%
same,inhibition at 10 µM,[14],3.2%
same,inhibition at 10 µM,[15],29.1%
same,inhibition at 10 µM,[16],5.8%
same,inhibition at 10 µM,[17],6.4%
same,inhibition at 10 µM,[18],-9.7%
same,inhibition at 10 µM,[19],-5.5%
same,inhibition at 10 µM,[20],12.2%
same,inhibition at 10 µM,[21],2.9%
same,inhibition at 10 µM,[22],53.2%
